According to the CheMixHub viscosity set:
Values joined by “and” are separate entries in the source; they are usually repeats but may differ in a detail not shown here. Equal values may be shown once.

What was measured:
[1] = xn = mol fraction of the nth substance listed

OCC(O)CO
Conditions | viscosity
293.15 K, 100 kPa | 1360 mPa·s
294 K, 101 kPa | 1390 mPa·s
298 K, 101 kPa | 946.5 mPa·s
298.15 K, 100 kPa | 860 mPa·s
298.15 K, 101.33 kPa | 803.7 mPa·s
303 K, 101 kPa | 611.3 mPa·s and 409.6 mPa·s
303.15 K, 100 kPa | 542 mPa·s
308 K, 101 kPa | 413.9 mPa·s
308.15 K, 101 kPa | 405.8 mPa·s
308.15 K, 101.33 kPa | 351.5 mPa·s
313 K, 101 kPa | 285.5 mPa·s
313.15 K, 100 kPa | 217 mPa·s
313.15 K, 101 kPa | 231 mPa·s and 284 mPa·s and 289.4 mPa·s
318 K, 101 kPa | 213.7 mPa·s
318.15 K, 101 kPa | 182.5 mPa·s and 176.2 mPa·s
318.15 K, 101.33 kPa | 157.1 mPa·s
323 K, 101 kPa | 141 mPa·s
323.15 K, 101 kPa | 142 mPa·s and 153.8 mPa·s

CC[NH+](CC)CC.O=S(=O)([O-])O
101 kPa
Conditions | viscosity
303.15 K | 153 mPa·s and 153 mPa·s
308.15 K | 138 mPa·s and 138 mPa·s
313.15 K | 108 mPa·s

COCCOCC[n+]1ccn(CCC#N)c1.O=S(=O)([N-]S(=O)(=O)C(F)(F)F)C(F)(F)F
101.33 kPa
Conditions | viscosity [mPa·s]
293.15 K | 296.5
303.15 K | 169
313.15 K | 103.2
323.15 K | 74.62

CCCCCC[N+](CC)(CC)CC.O=S(=O)([N-]S(=O)(=O)C(F)(F)F)C(F)(F)F
100 kPa
Conditions | viscosity [mPa·s]
293.15 K | 241.4
313.15 K | 80.71

CCCCCCCCCCCCBr
101 kPa
Conditions | viscosity [mPa·s]
298.08 K | 3.373
303.1 K | 3.024
308.11 K | 2.689
313.11 K | 2.437

CCOC(C)=O
Conditions | viscosity
296 K, 101.3 kPa | 0.437 mPa·s
298 K, 101.3 kPa | 0.439 mPa·s and 0.439 mPa·s
298.15 K, 100 kPa | 0.42 mPa·s and 0.42 mPa·s
298.15 K, 101.3 kPa | 0.4407 mPa·s (2×) and 0.439 mPa·s
298.15 K, 101.33 kPa | 0.457 mPa·s and 0.424 mPa·s and 0.424 mPa·s
303.15 K, 101.3 kPa | 0.4178 mPa·s and 0.4178 mPa·s
308.15 K, 101.3 kPa | 0.3972 mPa·s and 0.3972 mPa·s
313.15 K, 101.3 kPa | 0.376 mPa·s and 0.376 mPa·s
313.15 K, 101.32 kPa | 0.369 mPa·s
313.15 K, 101.33 kPa | 0.368 mPa·s
318 K, 101.3 kPa | 0.3829 mPa·s
318 K, 101.33 kPa | 0.3829 mPa·s
318.15 K, 101.3 kPa | 0.358 mPa·s
318.15 K, 101.33 kPa | 0.35 mPa·s
323.15 K, 100 kPa | 0.3053 mPa·s
323.15 K, 101 kPa | 0.341 mPa·s and 0.327 mPa·s and 0.3356 mPa·s
323.15 K, 101.3 kPa | 0.3407 mPa·s and 0.3407 mPa·s

[O-][Cl+3]([O-])([O-])O[Cl+3]([O-])([O-])[O-]
Conditions | viscosity [mPa·s]
293.15 K, 101.33 kPa | 0.698

CC(=O)N(C(C)C)C(C)C
Conditions | viscosity [mPa·s]
298.16 K, 101 kPa | 2.18

CCCCCCCCCCCC(=O)OC
100 kPa
Conditions | viscosity
293.15 K | 3.12 mPa·s and 3.128 mPa·s
298.15 K | 2.778 mPa·s
303.15 K | 2.491 mPa·s
308.15 K | 2.25 mPa·s
318.15 K | 1.877 mPa·s
323.15 K | 1.712 mPa·s and 1.717 mPa·s

CS(=O)(=O)[O-].C[N+](C)(CCO)CCO
101.33 kPa
Conditions | viscosity [mPa·s]
298.15 K | 1495
303.15 K | 1021
308.15 K | 716.3
313.15 K | 513.1
318.15 K | 377.6
323.15 K | 282.4

CCCCCCC(=O)O
Conditions | viscosity [mPa·s]
298.15 K, 101 kPa | 3.784

Clc1cccc(Cl)c1
viscosity
Conditions | 298.15 K | 303.15 K | 308.15 K | 313.15 K | 318.15 K
100 kPa | 1.017 mPa·s | 0.945 mPa·s | 0.895 mPa·s and 0.906 mPa·s | 0.849 mPa·s | 0.799 mPa·s and 0.809 mPa·s
101 kPa | – | 0.949 mPa·s and 0.945 mPa·s | 0.895 mPa·s and 0.895 mPa·s | 0.849 mPa·s | 0.799 mPa·s

CCOc1ccccc1
viscosity
Conditions | 101 kPa | 101.3 kPa | 101.33 kPa
293.15 K | 1.222 mPa·s and 1.27 mPa·s | 1.366 mPa·s | 1.231 mPa·s
293.35 K | 1.24 mPa·s | – | –
298 K | – | – | 1.164 mPa·s
302.75 K | 1.03 mPa·s | – | –
303 K | – | – | 1.068 mPa·s
303.15 K | 1.038 mPa·s and 1.05 mPa·s | – | 1.036 mPa·s
308 K | – | – | 0.983 mPa·s
308.15 K | 0.978 mPa·s | 0.9842 mPa·s | –
313.15 K | 0.901 mPa·s and 0.875 mPa·s | – | 0.894 mPa·s
318.15 K | 0.839 mPa·s | 0.8284 mPa·s | –
323.15 K | 0.782 mPa·s | – | –

CCCCCCCCn1cc[n+](C)c1.[Cl-]
101 kPa
Conditions | viscosity [mPa·s]
313.15 K | 4062
323.15 K | 2043

COC(=O)CC(C)=O
101.3 kPa
Conditions | viscosity
298.15 K | 1.566 mPa·s and 1.564 mPa·s and 1.564 mPa·s
303.15 K | 1.422 mPa·s and 1.421 mPa·s and 1.421 mPa·s
308.15 K | 1.298 mPa·s and 1.298 mPa·s

COc1ccc(C=O)cc1
101 kPa
Conditions | viscosity
303.15 K | 3.251 mPa·s and 3.578 mPa·s and 3.251 mPa·s
308.15 K | 3.131 mPa·s and 3.035 mPa·s and 3.131 mPa·s
313.15 K | 2.961 mPa·s and 2.649 mPa·s and 2.961 mPa·s
318.15 K | 2.682 mPa·s and 2.34 mPa·s and 2.682 mPa·s

CCCCCC[n+]1ccn(C)c1.O=S(=O)([O-])C(F)(F)F
100 kPa
Conditions | viscosity [mPa·s]
293.15 K | 194.9
298.15 K | 150.8
303.15 K | 115.7
308.15 K | 91.13
313.15 K | 74.03

Clc1cccc(Cl)c1 + Nc1cccc(Cl)c1
viscosity [mPa·s], [1], 100 kPa
Conditions | x2 = 0.1079 | x2 = 0.2255 | x2 = 0.3102 | x2 = 0.4128 | x2 = 0.5135 | x2 = 0.6122 | x2 = 0.7094 | x2 = 0.8047 | x2 = 0.8908
303.15 K | 1.313 | 1.712 | 1.998 | 2.341 | 2.675 | 2.999 | 3.318 | 3.627 | 3.905
308.15 K | 1.225 | 1.581 | 1.836 | 2.142 | 2.439 | 2.729 | 3.012 | 3.286 | 3.532
313.15 K | 1.141 | 1.455 | 1.678 | 1.946 | 2.208 | 2.462 | 2.708 | 2.946 | 3.162
318.15 K | 1.055 | 1.326 | 1.519 | 1.752 | 1.975 | 2.193 | 2.405 | 2.611 | 2.795

CCCC[P+](CC)(CCCC)CCCC.[Br-] + O
Conditions | viscosity [mPa·s]
[1], 303.15 K, 101 kPa, x1 = 0.008931 | 1.225
